“Also recorded” adds a separate entry of the source. Like-named read-outs stand apart in the source and are kept apart here. Each block holds one molecule with its values, some of them ahead of it.
Key:
FAAH [1] = molecular target: T1, FAAH (Rattus norvegicus, UniProt P97612); test: FAAH assay: hydrolysis of [3H]AEA by rat brain homogenates; format: biochemical
T1 sequence (P97612 1-579): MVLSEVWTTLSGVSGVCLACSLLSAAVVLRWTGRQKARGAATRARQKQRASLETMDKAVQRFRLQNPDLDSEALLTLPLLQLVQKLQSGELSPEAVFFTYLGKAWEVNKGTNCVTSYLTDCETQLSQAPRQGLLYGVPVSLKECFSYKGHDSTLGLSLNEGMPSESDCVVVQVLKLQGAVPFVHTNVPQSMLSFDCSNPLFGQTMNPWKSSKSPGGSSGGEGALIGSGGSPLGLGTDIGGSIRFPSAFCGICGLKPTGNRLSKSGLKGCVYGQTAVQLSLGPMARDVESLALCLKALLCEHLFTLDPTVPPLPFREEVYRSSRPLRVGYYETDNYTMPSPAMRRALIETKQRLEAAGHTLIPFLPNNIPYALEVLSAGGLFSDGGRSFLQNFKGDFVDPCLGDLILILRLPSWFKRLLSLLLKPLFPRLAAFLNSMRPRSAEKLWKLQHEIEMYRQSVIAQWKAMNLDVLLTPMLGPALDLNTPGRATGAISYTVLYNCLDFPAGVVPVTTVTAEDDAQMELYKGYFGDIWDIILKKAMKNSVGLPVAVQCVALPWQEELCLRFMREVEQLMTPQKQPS

[2] = tested on: acetic acid-induced abdominal stretching; conditions: rats, 20 mg/kg i.p., cited from earlier work
ovine COX-1 = molecular target: T2, ovine COX-1 (Ovis aries, UniProt P05979); test: COX oxygen electrode assay, COX-1; format: biochemical; conditions: for Initial activity (% of vehicle control) COX-1 (AEA): substrate 10 μM
T2 sequence (P05979 25-600): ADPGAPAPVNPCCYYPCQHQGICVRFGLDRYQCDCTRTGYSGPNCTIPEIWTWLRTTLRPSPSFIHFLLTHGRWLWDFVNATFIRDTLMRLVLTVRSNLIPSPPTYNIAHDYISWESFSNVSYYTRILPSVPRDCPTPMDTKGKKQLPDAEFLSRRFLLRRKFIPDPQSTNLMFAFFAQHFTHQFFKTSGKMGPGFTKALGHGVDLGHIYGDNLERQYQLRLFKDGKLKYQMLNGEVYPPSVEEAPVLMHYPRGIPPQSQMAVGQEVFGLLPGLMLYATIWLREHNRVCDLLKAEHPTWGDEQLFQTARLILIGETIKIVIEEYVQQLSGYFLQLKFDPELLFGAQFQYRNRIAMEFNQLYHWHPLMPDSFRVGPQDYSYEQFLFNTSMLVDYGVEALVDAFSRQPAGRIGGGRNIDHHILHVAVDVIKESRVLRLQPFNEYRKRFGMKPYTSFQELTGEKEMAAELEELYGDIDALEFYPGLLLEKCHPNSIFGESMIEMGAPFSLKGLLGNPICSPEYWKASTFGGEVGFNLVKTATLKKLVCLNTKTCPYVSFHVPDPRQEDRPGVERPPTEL

FAAH [3] = conditions: cited from earlier work
human recombinant COX-2 = molecular target: T3, human recombinant COX-2 (Homo sapiens, UniProt P35354); test: COX oxygen electrode assay, COX-2; format: biochemical; conditions: for Initial activity (% of vehicle control) COX-2 (AEA) / Initial activity (% of vehicle control) COX-2 (AA): vehicle EtOH; for Initial activity (% of vehicle control) COX-2 (AEA): substrate AEA 10 μM; for Initial activity (% of vehicle control) COX-2 (AA): substrate AA 10 μM
T3 sequence (P35354 18-604): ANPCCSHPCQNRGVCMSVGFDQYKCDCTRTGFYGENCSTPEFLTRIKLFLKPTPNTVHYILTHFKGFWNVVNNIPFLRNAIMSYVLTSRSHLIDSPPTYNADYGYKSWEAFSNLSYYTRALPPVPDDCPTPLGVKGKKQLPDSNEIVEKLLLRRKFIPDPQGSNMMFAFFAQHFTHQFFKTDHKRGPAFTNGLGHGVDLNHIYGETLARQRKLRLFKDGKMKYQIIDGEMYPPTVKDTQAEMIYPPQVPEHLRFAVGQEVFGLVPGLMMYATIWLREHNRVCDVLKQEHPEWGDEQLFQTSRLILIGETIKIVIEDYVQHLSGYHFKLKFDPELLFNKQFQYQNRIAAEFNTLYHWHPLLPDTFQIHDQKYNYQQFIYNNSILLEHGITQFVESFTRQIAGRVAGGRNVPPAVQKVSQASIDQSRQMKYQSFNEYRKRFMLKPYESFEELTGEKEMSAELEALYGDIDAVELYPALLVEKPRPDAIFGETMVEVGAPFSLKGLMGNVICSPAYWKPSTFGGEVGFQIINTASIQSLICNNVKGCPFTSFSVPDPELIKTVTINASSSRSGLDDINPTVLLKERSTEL

[4] = cited from earlier work
[5] = tested on: acetic acid-induced abdominal stretching; conditions: mice, 10 and 30 mg/kg s.c.; cited from earlier work
[6] = tested on: acetic acid-induced abdominal stretching (visceral nociception); test: Acetic acid-induced abdominal stretching test; format: in vivo; conditions: mice, 30 mg/kg s.c., 30 min before acetic acid
COX isoform = conditions: cited from earlier work
[7] = read-out: inhibition of the cyclooxygenation of AA by COX-2

Max inhibition % (FAAH [1]; solvent EtOH): 100%
SMILES: Cc1cccnc1OC(=O)C(C)c1ccc(CC(C)C)cc1 (centres unmarked) [Compound 3, 3-methylpyridin-2-yl 2-(4-isobutylphenyl)propanoate]

Max inhibition % (FAAH [1]; solvent EtOH): 100%
SMILES: Cc1cccc(NC(=O)CNC(=O)C(C)c2ccc(CC(C)C)cc2)n1 (centres unmarked) [Compound 10, 2-(4-Isobutylphenyl)-N-(2-(6-methylpyridin-2-ylamino)-2-oxoethyl)propanamide]

SMILES: Cc1cccnc1NC(=O)C(C)c1ccc(CC(C)C)cc1 (centres unmarked) [Compound 2, N-(3-methylpyridin-2-yl)-2-(4′-isobutylphenyl)propionamide]
activity in the acetic acid-induced abdominal stretching test ([2]; 20 mg/kg): has analgesic activity; also recorded: significantly greater reduction in stretching than the same dose of 1 | COX isoform selectivity with AA as substrate (ovine COX-1; AA as substrate, COX-1 vs COX-2): COX-1 selective | IC50 (ovine COX-1; IC50 COX-1 (approximate), AA 10 μM as substrate, DMSO as vehicle): ~240 µM | IC50 (ovine COX-1; IC50 COX-1 (approximate), AA 10 μM as substrate, ethanol as vehicle): ~60 µM | Initial activity (% of vehicle control) COX-1 (AEA) (ovine COX-1; vehicle DMSO, compound 20 μM): 106±15 (3) % of vehicle control | Initial activity (% of vehicle control) COX-1 (AEA) (ovine COX-1; vehicle DMSO, compound 50 μM): 82±4 (6) % of vehicle control | Initial activity (% of vehicle control) COX-1 (AEA) (ovine COX-1; vehicle DMSO, compound 100 μM): 63±6 (6) % of vehicle control | Initial activity (% of vehicle control) COX-1 (AEA) (ovine COX-1; vehicle DMSO, compound 200 μM): 59±8 (6) % of vehicle control | Initial activity (% of vehicle control) COX-1 (AEA) (ovine COX-1; vehicle DMSO, compound 400 μM): 36±0.9 (3) % of vehicle control | Initial activity (% of vehicle control) COX-1 (AEA) (ovine COX-1; vehicle EtOH, compound 20 μM): 70±6 (3) % of vehicle control | Initial activity (% of vehicle control) COX-1 (AEA) (ovine COX-1; vehicle EtOH, compound 50 μM): 57±0.6 (3) % of vehicle control | Initial activity (% of vehicle control) COX-1 (AEA) (ovine COX-1; vehicle EtOH, compound 100 μM): 45±8 (3) % of vehicle control | Initial activity (% of vehicle control) COX-1 (AEA) (ovine COX-1; vehicle EtOH, compound 200 μM): 14±4 (3) % of vehicle control | mode of inhibition of FAAH (FAAH [3]): acts non-competitively | orders of magnitude more potent as an inhibitor of FAAH than ibuprofen (FAAH [3]): 2–3 orders of magnitude | IC50 (human recombinant COX-2): ~19 µM | inhibition at 300 µM (human recombinant COX-2; [7]): 41% | Initial activity (% of vehicle control) COX-2 (AEA) (human recombinant COX-2; compound 3 μM): 111±15 (6) % of vehicle control | Initial activity (% of vehicle control) COX-2 (AEA) (human recombinant COX-2; compound 10 μM): 77±10 (3) % of vehicle control | Initial activity (% of vehicle control) COX-2 (AEA) (human recombinant COX-2; compound 20 μM): 51±17 (3) % of vehicle control | Initial activity (% of vehicle control) COX-2 (AEA) (human recombinant COX-2; compound 50 μM): 0.7±9 (4) % of vehicle control | Initial activity (% of vehicle control) COX-2 (AA) (human recombinant COX-2; compound 100 μM): 88±8 (3) % of vehicle control | Initial activity (% of vehicle control) COX-2 (AA) (human recombinant COX-2; compound 300 μM): 59±4 (4) % of vehicle control | acute ulcerogenesis [4]: much lower than seen with 1 | activity in the acetic acid-induced abdominal stretching test [5]: has analgesic activity; also recorded: greater than for a dose of 10 mg/kg s.c. and for 30 mg/kg of diclofenac | fold more potent than 1 as an FAAH inhibitor (FAAH [1]): approximately 250 fold | FAAH/COX-1 potency ratio, ratio for 1 set to unity (FAAH [1]; higher number = increased FAAH inhibitory potency relative to COX-1 potency): ~ 500 | Max inhibition % (FAAH [1]; solvent DMSO): 100% | Max inhibition % (FAAH [1]; solvent EtOH): 100% | number of abdominal stretches elicited by acetic acid [6]: active in vivo; also recorded: decreased the number of abdominal stretches

SMILES: CC(C)Cc1ccc(C(C)C(=O)O)cc1 (centres unmarked) [Compound 1, Ibuprofen, reference compound]
activity in the acetic acid-induced abdominal stretching test [2]: significantly less effective than 20 mg/kg of 2

Max inhibition % (FAAH [1]; solvent DMSO): 81±8%
SMILES: CC(C)Cc1ccc(C(C)C(=O)NCC(=O)NCc2cccnc2)cc1 (centres unmarked) [Compound 13, 2-(4-Isobutylphenyl)-N-(2-oxo-2-(pyridin-3-ylmethylamino)ethyl)propanamide]

SMILES: CC(=O)Nc1ccc(OC(=O)C(C)c2ccc(Nc3ccnc(C(F)(F)F)c3)cc2)cc1 (centres unmarked) [4-acetamidophenyl 2-(4-(2-(trifluoromethyl)pyridin-4-ylamino)phenyl)propanoate, reference compound]
inhibition of COX isoforms (COX isoform): did not inhibit either COX isoform | IC50 (FAAH [3]; read-out: IC50 FAAH): 0.1 µM

Max inhibition % (FAAH [1]; solvent DMSO): 90±3%
SMILES: Cc1cccnc1NC(=O)CCNC(=O)C(C)c1ccc(CC(C)C)cc1 (centres unmarked) [Compound 11, 2-(4-Isobutylphenyl)-N-(3-(3-methylpyridin-2-ylamino)-3-oxopropyl)propanamide]

IC50 (ovine COX-1): ~50 µM | Initial activity (% of vehicle control) COX-1 (AEA) (ovine COX-1; vehicle EtOH, compound 20 μM): 76±8 (3) % of vehicle control | Initial activity (% of vehicle control) COX-1 (AEA) (ovine COX-1; vehicle EtOH, compound 50 μM): 56±4 (3) % of vehicle control | Initial activity (% of vehicle control) COX-1 (AEA) (ovine COX-1; vehicle EtOH, compound 100 μM): 23±4 (3) % of vehicle control | IC50 (human recombinant COX-2): ~10 µM | inhibition at 100 µM (human recombinant COX-2; [7]): 18% | Initial activity (% of vehicle control) COX-2 (AEA) (human recombinant COX-2; compound 3 μM): 83±8 (3) % of vehicle control | Initial activity (% of vehicle control) COX-2 (AEA) (human recombinant COX-2; compound 50 μM): −11±4 (3) % of vehicle control | Initial activity (% of vehicle control) COX-2 (AA) (human recombinant COX-2; compound 100 μM): 82±5 (4) % of vehicle control
SMILES: Cc1cccnc1NC(=O)CNC(=O)C(C)c1ccc(CC(C)C)cc1 (centres unmarked) [Compound 9, 2-(4-Isobutylphenyl)-N-(2-(3-methylpyridin-2-ylamino)-2-oxoethyl)propanamide]

Max inhibition % (FAAH [1]; solvent DMSO): 100%
SMILES: CC(C)Cc1ccc(C(C)C(=O)NCC(=O)NCc2ccccn2)cc1 (centres unmarked) [Compound 12, 2-(4-Isobutylphenyl)-N-(2-oxo-2-(pyridin-2-ylmethylamino)ethyl)propanamide]

Reference: publication PMC3606911 (Journal of enzyme inhibition and medicinal chemistry, 2012)
